pEC50: −log10 of the molar value. Read-outs that look alike come from different tables or passages of the source.
Key:
HCMV strain AD169 = assay: HCMV primary assay (CPE), strain AD169, HFF cells; type: cell-based, Human Cytomegalovirus
Protocol: The antiviral activity of the compound against HCMV in the described Primary assay was measured by treating primary Human foreskin fibroblast (HFF) cells infected with HCMV with a range of compound concentrations—description of methods for this assay can be found in section 1.3.2.1. […] . Additional tested assay parameters in this Primary assay can be found in Table 3.2.1 and include EC90, S150, and S190 values—descriptions of those data points can be found in section 3.2.1.

[1] = Cytotoxicity concurrent with HCMV AD169 primary assay; type: cell-based, human; settings: human
[2] = Cytotoxicity concurrent with HSV2 primary assay; type: cell-based; settings: human
Protocol: (§1) Assays were performed in monolayers as described. […] Toxicity was measured using CTG as above. […] Toxicity was measured using CTG as above.

VZV strain Ellen = assay: VZV primary assay, strain Ellen, HFF cells; type: cell-based, Varicella Zoster Virus
Protocol: as §1
(§2) Monolayers of HFF cells were prepared in six-well plates and incubated at 37° C. for 2 d to allow the cells to reach confluency. Media was then aspirated from the wells and 0.2 mL of virus-containing solution was added to each of three wells to yield 20-30 plaques in each well. The virus was allowed to adsorb to the cells for 1 h and the plates were agitated every 15 minutes. Compounds were diluted in assay media consisting of MEM with Earl's salts supplemented with 2% FBS, glutamine, penicillin, and gentamycin. Diluted drug was added to duplicate wells and the plates were incubated for various times, depending on the virus used. For HSV-1 and -2, the monolayers were then stained with 1% crystal violet in 20% methanol and the unbound dye removed by washing with dH20. For all other assays, the cell monolayer was stained with 1% Neutral Red solution for 4-6 h then the stain was aspirated and the cells were washed with PBS.

HSV1 strain E-377 = assay: HSV1 primary assay, strain E-377, HFF cells; type: cell-based, Herpes Simplex Virus 1
Protocol: as §1, §2

[3] = Cytotoxicity concurrent with EBV primary assay; settings: human, Akata cells without virus induction
[4] = tested on: Epstein-Barr virus Akata strain; assay: Epstein-Barr primary assay, Akata strain, Akata cells; type: cell-based
[5] = Cytotoxicity concurrent with HSV1 E-377 primary assay; type: cell-based; settings: human
Protocol: as §1

[6] = Cytotoxicity concurrent with VZV Ellen primary assay; type: cell-based; settings: human
Protocol: as §1

[7] = Cytotoxicity concurrent with Adenovirus primary assay; type: cell-based; settings: human
HSV2 strain G = assay: HSV2 primary assay, strain G, HFF cells; type: cell-based, herpes simplex virus 2
Protocol: as §1, §2

[8] = tested on: Adenovirus Adenoid75 strain; assay: Adenovirus primary assay, Adenoid75 strain, HFF cells; type: cell-based; settings: unidentified adenovirus
[9] = Metabolic stability in mice liver microsomes; settings: mice liver microsomes, 1 μM compound, 1 mM NADPH, 60 min
Protocol: Potassium phosphate buffer (Kphos) was prepared by adding 0.647 g potassium phosphate monobasic (KH2PO4) and 3.527 g potassium phosphate dibasic (K2HPO4) to 400 mL of Milli-Q water. pH of the buffer was adjusted to 7.4 and volume was made up to 500 mL.
Stock solutions of the test compounds were prepared in DMSO at a concentration of 1 mM.
To this microsomal mix 1.42 μL (1 mM) of test compound and positive control were spiked, from this mix 70 μL was transferred to 96 well plate and pre-incubated at 37° C. for 5 min. […] The plates were centrifuged at 4000 RPM for 15 min and 100 μL aliquots were submitted for analysis by LC-MS/MS.
Samples were monitored for parent compound disappearance in MRM mode using LC-MS/MS. The LC-MS/MS conditions and MRM chromatogram will be provided as per client request.
The peak area ratios of analyte versus internal standard were used to calculate the % remaining at the end of 60 minutes in presence NADPH.

[10] = Human betaherpesvirus 5, HCMV primary assay, virus strain AD169, HFF cells, read-out: EC50
[11] = Human betaherpesvirus 5, HCMV primary assay, virus strain AD169, HFF cells, read-out: EC90
[12] = Human alphaherpesvirus 3, VZV primary assay, strain Ellen, cell line HFF, read-out: EC50
[13] = Human alphaherpesvirus 3, VZV primary assay, strain Ellen, cell line HFF, read-out: EC90
[14] = Human alphaherpesvirus 1, HSV1 primary assay, strain E-377, HFF cells, read-out: EC50
[15] = Human alphaherpesvirus 1, HSV1 primary assay, strain E-377, HFF cells, read-out: EC90
[16] = human gammaherpesvirus 4, Epstein-Barr primary assay, Akata strain, Akata cells, read-out: EC50
[17] = human gammaherpesvirus 4, Epstein-Barr primary assay, Akata strain, Akata cells, read-out: EC90
[18] = Human alphaherpesvirus 2, HSV2 primary assay, strain G, HFF cells, read-out: EC50
[19] = Human alphaherpesvirus 2, HSV2 primary assay, strain G, HFF cells, read-out: EC90
[20] = Adenovirus primary assay, HFF cells, Adenoid75 strain, read-out: EC50
[21] = Adenovirus primary assay, HFF cells, Adenoid75 strain, read-out: EC90
[22] = Human betaherpesvirus 5, AD169, HFF
[23] = human gammaherpesvirus 4, Akata

pEC50 (HCMV strain AD169; [10])	EC90 (HCMV strain AD169; [11]) [µM]	Structure (SMILES)	CC50 ([1]; CC50) [µM]	CC50 [2] [µM]	pEC50 (HSV1 strain E-377; [14])	EC90 (HSV1 strain E-377; [15]) [µM]	CC50 at 72 h [3] [µM]	CC50 [5] [µM]	CC50 [6] [µM]	CC50 [7] [µM]	further results
5.70	2	CC(C)(C)OC(=O)NCC1CCC(Nc2cc3c4ccc(F)cc4nn3cn2)CC1 (stereo not drawn) [VKT-001]	6.19								
		CN(C)C1CCC(Nc2cc3c4ccc(F)cc4nn3cn2)CC1 (stereo not drawn) [VKT-007]			5.00	10		16.1			% Remaining at 60 min [9]: 54%
6.40	0.4	CN(c1cc2c3ccc(F)cc3nn2cn1)C1CCC(CNC(=O)OC(C)(C)C)CC1 (stereo not drawn) [VKT-009-A]	0.57								
7.10	0.08	CN(CC1CCC(N(C)c2cc3c4ccc(F)cc4nn3cn2)CC1)C(=O)OC(C)(C)C (stereo not drawn) [VKT-009-B]	0.17								
5.00	10	CC1CC(Nc2cc3c4ccc(F)cc4nn3cn2)CCO1 (stereo not drawn) [VKT-011]	38.6								
5.00	10	CC1CC(Nc2cc3c4ccc(F)cc4nn3cn2)CC(C)O1 (stereo not drawn) [VKT-013]	48.1								
5.00	10	Fc1ccc2c(c1)nn1cnc(NC3COCCOC3)cc21 [VKT-016]	48.5								
		CN1CCC(Nc2cc3c4ccc(F)cc4nn3cn2)CC1 [VKT-023]	46	50			50	50	44.7	50	pEC50 (HCMV strain AD169; [22]): 5.00; EC90 (HCMV strain AD169; [22]): 10 µM; pEC50 (VZV strain Ellen; Human alphaherpesvirus 3, HFF): 5.00; EC90 (VZV strain Ellen; Human alphaherpesvirus 3, HFF): 10 µM; pEC50 (HSV1 strain E-377; Human alphaherpesvirus 1, HFF): 4.30; EC90 (HSV1 strain E-377; Human alphaherpesvirus 1, HFF): 50 µM; pEC50 [4, 23]: 4.53; EC90 [4, 23]: 50 µM; pEC50 (HSV2 strain G; Human alphaherpesvirus 2, HFF): 4.30; EC90 (HSV2 strain G; Human alphaherpesvirus 2, HFF): 50 µM; pEC50 ([8]; HFF): 4.30; EC90 ([8]; HFF): 50 µM
5.00	10	CCN1CCC(Nc2cc3c4ccc(F)cc4nn3cn2)CC1 [VKT-025]	48.1								
5.00	10	CN(C)CC(=O)N1CCC(Nc2cc3c4ccc(F)cc4nn3cn2)CC1 [VKT-028]	32								
4.30	50	CNC(=O)CN1CCC(Nc2cc3c4ccc(F)cc4nn3cn2)CC1 [VKT-031]	50								
		OCCC1CCC(Nc2cc3c4ccc(F)cc4nn3cn2)CC1 (stereo not drawn) [VKT-032]									pEC50 (HCMV strain AD169; [22]): 5.00; EC90 (HCMV strain AD169; [22]): 10 µM; CC50 ([1]; HCMV primary assay, HFF cells, read-out: CC50): 26.2 µM
		N[C@@H]1CC[C@H](Nc2cc3c4ccc(F)cc4nn3cn2)C1 [VKT-034]			5.00	10		18.7			% Remaining at 60 min [9]: 81%
		N[C@H]1CC[C@H](Nc2cc3c4ccc(F)cc4nn3cn2)C1 [VKT-036]			5.00	10		29.4			% Remaining at 60 min [9]: 82%
5.00	10	Fc1ccc2c(c1)nn1cnc(NC3CCNCC3)cc21 [VKT-319, 7-fluoro-N-(piperidin-4-yl)pyrimido[1,6-b]indazol-3-amine]	37.5								

Structure (SMILES)	pEC50 (HCMV strain AD169; [10])	EC90 (HCMV strain AD169; [11]) [µM]	CC50 ([1]; CC50) [µM]	CC50 [2] [µM]	pEC50 (HSV1 strain E-377; [14])	EC90 (HSV1 strain E-377; [15]) [µM]	CC50 at 72 h [3] [µM]	CC50 [5] [µM]	CC50 [6] [µM]	CC50 [7] [µM]	further results
NCC1CCC(Nc2cc3c4ccc(F)cc4nn3cn2)CC1 (stereo not drawn) [VKT-002]	5.70	2	7.42	24.4	5.00	10	6.69	20.8	7.9	21.2	pEC50 (VZV strain Ellen; [12]): 5.70; EC90 (VZV strain Ellen; [13]): 2 µM; pEC50 [4, 16]: 5.75; EC90 [4, 17]: 2 µM; pEC50 (HSV2 strain G; [18]): 5.00; EC90 (HSV2 strain G; [19]): 10 µM; pEC50 [8, 20]: 5.35; EC90 [8, 21]: 10 µM
CN(C(=O)OC(C)(C)C)C1CCC(Nc2cc3c4ccc(F)cc4nn3cn2)CC1 (stereo not drawn) [VKT-005]	6.40	0.4	1.48	7.94	5.00	10	39.4	16	1.48	3.81	pEC50 (VZV strain Ellen; [12]): 6.40; EC90 (VZV strain Ellen; [13]): 0.4 µM; pEC50 [4, 16]: 5.00; EC90 [4, 17]: 10 µM; pEC50 (HSV2 strain G; [18]): 5.70; EC90 (HSV2 strain G; [19]): 2 µM; pEC50 [8, 20]: 5.70; EC90 [8, 21]: 2 µM
CNC1CCC(Nc2cc3c4ccc(F)cc4nn3cn2)CC1 (stereo not drawn) [VKT-006]	5.00	10	32.5	42.8	5.00	10	33.5	38.5	27.2	30.5	pEC50 (VZV strain Ellen; [12]): 5.00; EC90 (VZV strain Ellen; [13]): 10 µM; pEC50 [4, 16]: 5.08; EC90 [4, 17]: 10 µM; pEC50 (HSV2 strain G; [18]): 5.00; EC90 (HSV2 strain G; [19]): 10 µM; pEC50 [8, 20]: 5.00; EC90 [8, 21]: 10 µM
CN(C)CC1CCC(Nc2cc3c4ccc(F)cc4nn3cn2)CC1 (stereo not drawn) [VKT-008]	5.00	10	38.8	50	4.30	50	50	50	37.2	48.6	pEC50 (VZV strain Ellen; [12]): 5.00; EC90 (VZV strain Ellen; [13]): 10 µM; pEC50 [4, 16]: 5.09; EC90 [4, 17]: 44 µM; pEC50 (HSV2 strain G; [18]): 4.30; EC90 (HSV2 strain G; [19]): 50 µM; pEC50 [8, 20]: 5.00; EC90 [8, 21]: 10 µM
Fc1ccc2c(c1)nn1cnc(NC3CCSCC3)cc21 [VKT-017]	5.00	10	21.4	50	4.30	50	50	50	37.1	46.7	pEC50 (VZV strain Ellen; [12]): 5.00; EC90 (VZV strain Ellen; [13]): 10 µM; pEC50 [4, 16]: 4.63; EC90 [4, 17]: 41.5 µM; pEC50 (HSV2 strain G; [18]): 4.30; EC90 (HSV2 strain G; [19]): 50 µM; pEC50 [8, 20]: 5.00; EC90 [8, 21]: 10 µM
CC(C)(C)OC(=O)N[C@H]1CCC(Nc2cc3c4ccc(F)cc4nn3cn2)C1 (stereo partly drawn) [VKT-035]	5.70	2	8.14	17.7	5.00	10	31.9	15.9	7.6	17.5	pEC50 (VZV strain Ellen; [12]): 5.70; EC90 (VZV strain Ellen; [13]): 2 µM; pEC50 [4, 16]: 5.00; EC90 [4, 17]: 10 µM; pEC50 (HSV2 strain G; [18]): 5.00; EC90 (HSV2 strain G; [19]): 10 µM; pEC50 [8, 20]: 5.00; EC90 [8, 21]: 10 µM

— patent publication US20240309004A1, “SELECTIVE CYCLIN-DEPENDENT KINASE INHIBITORS AND METHODS OF THERAPEUTIC USE THEREOF” (ViroKyne Therapeutics, LLC, priority 2021, published 2024)
